Key:
[1] = Liquid; for speed of sound: Frequency=1.5 MHz, Single path-length method; for mass density: 298.15 K, 101.33 kPa, Vibrating tube method
[2] = refractive index (Na D-line) (dimensionless); details: 298.15 K; 101.33 kPa; Liquid; Standard Abbe refractometry

CCCCCC [hexane]
speed of sound [m/s], [1]
Details | 283.15 K | 293.15 K | 303.15 K | 313.15 K | 323.15 K | 333.15 K | 343.15 K
100 kPa | 1147.3 | 1102.8 | 1056.2 | 1011.6 | 966.77 | 923.14 | –
105 kPa | – | – | – | – | – | – | 877.65
5100 kPa | 1183.8 | 1141.9 | 1097.9 | 1055.9 | 1013.6 | 972.45 | 931.79
10100 kPa | 1218.6 | 1177.2 | 1135.8 | 1096.4 | 1056.7 | 1017.2 | 977.66
20100 kPa | 1283.2 | 1243.4 | 1204.4 | 1167.8 | 1131.8 | 1096.3 | 1060.6
30100 kPa | 1339.6 | 1302.4 | 1266.5 | 1231.8 | 1197.6 | 1164 | 1131.3
40100 kPa | 1391.9 | 1356 | 1321.9 | 1289.3 | 1256.9 | 1225.4 | 1194.6
50100 kPa | 1440.2 | 1405.9 | 1373.7 | 1341.4 | 1311 | 1280.6 | 1252.1
60100 kPa | 1484.8 | 1452.3 | 1421.1 | 1390.3 | 1361.3 | 1331.7 | 1304.4
70100 kPa | 1526.9 | 1495.6 | 1464.4 | 1435.6 | 1408.2 | 1380.5 | 1354.1
80100 kPa | 1566.5 | 1536.7 | 1508.3 | 1478.3 | 1451.5 | 1425.6 | 1400.1
90100 kPa | 1604.6 | 1575.4 | 1548 | 1519.6 | 1493 | 1467.5 | 1442.2
95100 kPa | 1622.6 | 1594.1 | 1567.1 | 1539.5 | 1512.6 | 1487.5 | 1463.4

Details | mass density [kg/m3] | refractive index
[1] | 654.9 | –
[2] | – | 1.3723

CO [methanol]
speed of sound [m/s], [1]
Details | 283.15 K | 293.15 K | 303.15 K | 313.15 K | 323.15 K | 333.15 K | 343.15 K
100 kPa | 1154.3 | 1120.6 | 1087.4 | 1054.5 | 1022 | 989.77 | –
120 kPa | – | – | – | – | – | – | 957.61
5100 kPa | 1182 | 1149.2 | 1118 | 1087 | 1055.8 | 1025.2 | 994.42
10100 kPa | 1209.3 | 1176.2 | 1146.4 | 1116.8 | 1087.2 | 1058 | 1028.6
20100 kPa | 1258.7 | 1227.4 | 1199.4 | 1171.1 | 1143.8 | 1117.2 | 1090.6
30100 kPa | 1303.6 | 1274.2 | 1248.1 | 1221.5 | 1195.3 | 1169.8 | 1144.9
40100 kPa | 1345.2 | 1316.8 | 1292.5 | 1267.3 | 1242.7 | 1218.6 | 1194.9
50100 kPa | 1384.4 | 1357 | 1333.7 | 1309.7 | 1286.3 | 1263.6 | 1241
60100 kPa | 1421 | 1394.9 | 1372.8 | 1349.4 | 1326.6 | 1304.8 | 1283.5
70100 kPa | 1456.2 | 1430.8 | 1409.7 | 1387.1 | 1365 | 1343.6 | 1323.1
80100 kPa | 1489.1 | 1464.7 | 1444.6 | 1422.7 | 1401.3 | 1380.8 | 1361.1
90100 kPa | 1520.7 | 1496.7 | 1477.7 | 1456.3 | 1435.9 | 1415.9 | 1396.8
95100 kPa | 1536 | 1512.3 | 1493.8 | 1472.6 | 1452.3 | 1432.7 | 1414

Details | mass density [kg/m3] | refractive index
[1] | 786.5 | –
[2] | – | 1.3263
